# Experimental data reported in BindingDB's records for doi:10.1021/jm300317k (University of Manchester, 2012).
# Target: Glucose-6-phosphate 1-dehydrogenase (Homo sapiens, UniProt P11413)
# Assay: Inhibition of human recombinant N-terminal His tagged G6PD expressed in Escherichia coli JM109 (DE3) cells assessed as production of NADPH after 30 mins by Amplite fluorimetric assay
# Sequence of Glucose-6-phosphate 1-dehydrogenase (P11413 whole entry): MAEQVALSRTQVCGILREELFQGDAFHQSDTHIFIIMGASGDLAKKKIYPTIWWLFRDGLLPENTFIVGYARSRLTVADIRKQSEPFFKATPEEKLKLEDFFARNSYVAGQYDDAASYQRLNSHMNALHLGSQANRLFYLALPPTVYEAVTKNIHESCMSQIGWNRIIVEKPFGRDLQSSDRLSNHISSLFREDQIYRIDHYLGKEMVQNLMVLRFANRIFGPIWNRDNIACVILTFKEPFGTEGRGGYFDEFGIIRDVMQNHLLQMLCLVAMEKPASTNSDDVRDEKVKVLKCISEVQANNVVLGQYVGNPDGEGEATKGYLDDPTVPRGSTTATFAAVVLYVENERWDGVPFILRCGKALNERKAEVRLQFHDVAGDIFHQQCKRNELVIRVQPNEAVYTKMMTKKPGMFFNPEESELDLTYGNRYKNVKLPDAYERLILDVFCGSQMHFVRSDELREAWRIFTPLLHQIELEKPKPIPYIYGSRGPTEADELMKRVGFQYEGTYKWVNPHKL
row,IC50 [µM],Compound
1,> 200,CC(N=O)[C@H]1CC[C@H]2[C@@H]3CC[C@H]4C[C@@H](O)CC[C@]4(C)[C@H]3CC[C@]12C (some centres not stated)
2,> 200,C[C@]12CC[C@H](O)C[C@@H]1CC[C@@H]1[C@@H]2CC[C@]2(C)C(N=O)CC[C@@H]12 (some centres not stated)
